Test results taken from patent US9023623B2, “Method for preparing of allicin injection and low-temperature continuous stirring ultrafiltration device thereof” (Xinjiang Ailexin Pharmaceutical Co., Ltd., priority 2010, dated 2015).
In brackets after ≈: the same amount, converted by molar mass.

What was measured:
[1] = tested on: Methicillin Resistant Staphylococcus Aureus (MRSA); assay: Anti-pathogenic microorganism test; format: cell-based
Candida albicans = assay: Anti-pathogenic microorganism test; format: cell-based
[2] = room temperature; background description; cited from earlier work
Acinetobacter = assay: Anti-pathogenic microorganism test; format: cell-based
Helicobacter pylori = assay: Anti-pathogenic microorganism test; format: cell-based
[3] = background description; cited from earlier work
Escherichia coli = assay: Anti-pathogenic microorganism test; format: cell-based

C=CCS[S+]([O-])CC=C (stereo not shown) [Allicin, thio-2-propene-1-sulfinic acid S-allyl ester]
bactericidal activity [1]: obviously bactericidal activity
MIC ([1]; Staphylococcus aureus): 10 to 30 µg/mL (≈ 61.6 to 185 µM)
bactericidal activity (Candida albicans): obviously bactericidal activity
sensitivity to allicin (Candida albicans): sensitive
solubility in water [2]: slightly soluble in water
bactericidal activity (Acinetobacter): obviously bactericidal activity
MIC (Helicobacter pylori): 10 to 30 µg/mL (≈ 61.6 to 185 µM)
bactericidal activity (Helicobacter pylori): obviously bactericidal activity
decomposition when exposed to air [3]: decomposes and deteriorates within a few hours
bactericidal activity (Escherichia coli): obviously bactericidal activity
